Results on twelve molecules are retold here after ChEMBL document CHEMBL1201862, “PubChem BioAssay data set” (2004).

Series [1] is described as follows: HeLa cell cytotoxicity, dose response, cytotoxicity control for MgcRacGAP inhibitor project (AID 624300). The series is classed as functional.
Series [2] has as its target T1, Rac GTPase-activating protein 1 (Homo sapiens, UniProt Q9H0H5).
T1 sequence (Q9H0H5 whole entry): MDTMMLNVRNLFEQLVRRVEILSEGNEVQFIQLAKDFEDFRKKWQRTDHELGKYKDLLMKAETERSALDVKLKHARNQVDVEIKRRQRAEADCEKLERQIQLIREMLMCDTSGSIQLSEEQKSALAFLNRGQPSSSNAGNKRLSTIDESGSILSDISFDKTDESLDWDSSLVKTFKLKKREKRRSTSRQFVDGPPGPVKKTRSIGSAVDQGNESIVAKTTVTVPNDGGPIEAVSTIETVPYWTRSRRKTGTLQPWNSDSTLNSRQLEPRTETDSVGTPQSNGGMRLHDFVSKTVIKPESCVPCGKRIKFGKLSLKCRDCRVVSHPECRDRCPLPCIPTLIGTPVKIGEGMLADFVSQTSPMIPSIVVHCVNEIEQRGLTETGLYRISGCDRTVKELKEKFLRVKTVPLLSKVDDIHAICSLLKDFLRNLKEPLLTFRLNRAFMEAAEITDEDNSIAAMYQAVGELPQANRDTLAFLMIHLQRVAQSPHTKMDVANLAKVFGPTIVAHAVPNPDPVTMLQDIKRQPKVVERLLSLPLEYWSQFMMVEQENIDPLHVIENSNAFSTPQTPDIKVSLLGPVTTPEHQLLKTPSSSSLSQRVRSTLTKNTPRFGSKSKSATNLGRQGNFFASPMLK
Kind of series: MgcRacGAP GTPase-activating activity inhibitors, confirmation, biochemical, ADP Hunter fluorescence, primary and confirmatory (AID 624330). It counts as functional.

Series [3] can be described thus: inhibitors of Vif binding to APOBEC3G peptide, primary screen, biochemical, TR-FRET, GST-Vif 1-94, biotin-A3G peptide, dose response retest (AID 1117319).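 Also: TR-FRET signal of purified GST-Vif binding a biotinylated A3G peptide; inhibitors lower the FRET signal by blocking Vif and A3G binding.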 It counts as functional. A general note: Time-resolved FRET reads energy transfer from a long-lived donor to a nearby acceptor.
A further series relates to Vero. As to the kind of experiment: Vero cell cytotoxicity, cytotoxicity control for flavivirus capping enzyme inhibitors (AID 588742). It counts as functional. The following applies: Chlorocebus sabaeus.
Series [4] in a line: THP-1 cell cytotoxicity, dose response, cytotoxicity control for Vif-APOBEC3G degradation inhibitor project, THP-1 cells (AID 1117359). It counts as functional. Particulars: Human immunodeficiency virus 1, THP-1.
The next series deals with Cytochrome P450 3A4 (Homo sapiens, UniProt P08684).
Chain of Cytochrome P450 3A4 (P08684 whole entry): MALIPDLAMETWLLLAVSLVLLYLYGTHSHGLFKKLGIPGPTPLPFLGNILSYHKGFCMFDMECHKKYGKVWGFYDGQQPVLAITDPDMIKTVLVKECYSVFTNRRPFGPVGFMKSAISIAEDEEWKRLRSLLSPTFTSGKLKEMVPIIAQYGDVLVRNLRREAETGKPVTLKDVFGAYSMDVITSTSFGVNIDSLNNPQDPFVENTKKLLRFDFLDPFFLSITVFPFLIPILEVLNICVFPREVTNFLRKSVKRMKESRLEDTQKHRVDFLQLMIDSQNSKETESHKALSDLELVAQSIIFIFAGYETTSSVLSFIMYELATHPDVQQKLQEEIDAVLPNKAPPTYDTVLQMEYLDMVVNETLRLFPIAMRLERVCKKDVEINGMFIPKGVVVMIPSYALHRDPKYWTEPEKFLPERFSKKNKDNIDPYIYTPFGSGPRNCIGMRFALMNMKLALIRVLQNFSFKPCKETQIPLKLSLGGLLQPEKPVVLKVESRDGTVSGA
For a further series, the target named is Cytochrome P450 2C9 (Homo sapiens, UniProt P11712).
Chain of Cytochrome P450 2C9 (P11712 whole entry): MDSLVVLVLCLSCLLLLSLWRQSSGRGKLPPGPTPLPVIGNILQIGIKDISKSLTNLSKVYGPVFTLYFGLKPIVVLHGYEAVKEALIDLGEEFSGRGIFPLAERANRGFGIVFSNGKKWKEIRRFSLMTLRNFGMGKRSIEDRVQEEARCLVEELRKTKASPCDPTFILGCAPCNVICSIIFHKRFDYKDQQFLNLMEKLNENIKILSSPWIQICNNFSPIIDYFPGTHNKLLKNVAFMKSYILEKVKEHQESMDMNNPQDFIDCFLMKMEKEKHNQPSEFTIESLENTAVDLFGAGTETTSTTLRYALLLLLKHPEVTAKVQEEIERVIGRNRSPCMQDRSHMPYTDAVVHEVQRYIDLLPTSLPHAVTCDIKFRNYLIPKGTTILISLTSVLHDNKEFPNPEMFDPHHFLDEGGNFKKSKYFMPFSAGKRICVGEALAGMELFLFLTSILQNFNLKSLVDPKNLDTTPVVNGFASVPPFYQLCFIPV
In the next series the target is T2, Cytochrome P450 1A2 (Homo sapiens, UniProt P05177).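 Also: PubChem cytochrome P450 panel assay, CYP1A2 panel member.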
T2 sequence (P05177 whole entry): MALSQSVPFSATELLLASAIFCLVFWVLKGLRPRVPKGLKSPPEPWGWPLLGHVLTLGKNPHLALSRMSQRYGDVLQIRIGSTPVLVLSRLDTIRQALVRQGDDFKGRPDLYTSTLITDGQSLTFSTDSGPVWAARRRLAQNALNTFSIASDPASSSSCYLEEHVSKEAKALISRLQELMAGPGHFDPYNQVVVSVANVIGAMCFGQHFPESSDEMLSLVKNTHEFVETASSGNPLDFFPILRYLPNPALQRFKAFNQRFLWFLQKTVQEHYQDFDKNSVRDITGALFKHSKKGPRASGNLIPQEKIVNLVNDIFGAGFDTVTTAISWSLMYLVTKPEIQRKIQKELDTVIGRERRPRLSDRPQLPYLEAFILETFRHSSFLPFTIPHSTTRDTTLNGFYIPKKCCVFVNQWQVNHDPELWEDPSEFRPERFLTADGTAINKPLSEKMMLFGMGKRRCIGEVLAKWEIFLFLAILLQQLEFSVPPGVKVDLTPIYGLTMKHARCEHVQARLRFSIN

A further series deals with Albumin (Bos taurus, UniProt P02769). Kind of series: Counterscreen for inhibitors of T-cell receptor (TCR)-CD3 interaction: Fluorescence-based biochemical high throughput dose response assay to identify inhibitors of T-cell receptor (TCR)-CD3 interaction using a TAMRA-labeled BSA probe. It counts as functional.
Chain of Albumin (P02769 whole entry): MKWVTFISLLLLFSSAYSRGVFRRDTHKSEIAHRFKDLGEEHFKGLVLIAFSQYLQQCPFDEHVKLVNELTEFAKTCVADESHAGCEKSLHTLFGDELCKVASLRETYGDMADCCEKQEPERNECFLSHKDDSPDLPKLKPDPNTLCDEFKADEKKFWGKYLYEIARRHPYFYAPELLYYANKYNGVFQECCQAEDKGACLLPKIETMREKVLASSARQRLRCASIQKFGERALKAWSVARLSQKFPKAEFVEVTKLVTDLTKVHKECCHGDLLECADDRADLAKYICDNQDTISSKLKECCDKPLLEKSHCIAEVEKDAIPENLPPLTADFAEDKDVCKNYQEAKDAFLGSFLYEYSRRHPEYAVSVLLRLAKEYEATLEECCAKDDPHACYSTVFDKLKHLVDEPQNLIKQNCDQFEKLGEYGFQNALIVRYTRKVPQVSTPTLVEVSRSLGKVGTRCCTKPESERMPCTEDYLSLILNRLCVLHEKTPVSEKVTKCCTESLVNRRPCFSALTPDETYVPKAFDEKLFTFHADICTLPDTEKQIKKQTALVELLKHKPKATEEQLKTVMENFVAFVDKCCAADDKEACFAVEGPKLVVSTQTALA
Series [5] can be described thus: NIH-3T3 fibroblast cytotoxicity, dose response, cytotoxicity control, cell-based, fluorescence, Alamar Blue, secondary assay (AID 2327).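 Also: NIH-3T3 mouse fibroblasts cultured with fluconazole at 8 µg/mL.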 It counts as functional. A general note: Resazurin is reduced to fluorescent resorufin, in cell work by metabolically active cells.
The nature of series [6]: C. albicans growth with fluconazole, confirmation, fluorescence, retest (AID 2467). The series is classed as functional, cell-based.
The nature of series [7]: A549 cell cytotoxicity, dose response, cytotoxicity control, plate reader, cherry-pick, antagonist series (AID 743412). The series is classed as functional, cell-based.
The target in series [8] is T3, Sentrin-specific protease 7 (Homo sapiens, UniProt Q9BQF6).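 Also: Luminescence-based dose-response confirmation of ultra-high-throughput screening hits, measuring inhibition of SENP7.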
T3 sequence (Q9BQF6 whole entry): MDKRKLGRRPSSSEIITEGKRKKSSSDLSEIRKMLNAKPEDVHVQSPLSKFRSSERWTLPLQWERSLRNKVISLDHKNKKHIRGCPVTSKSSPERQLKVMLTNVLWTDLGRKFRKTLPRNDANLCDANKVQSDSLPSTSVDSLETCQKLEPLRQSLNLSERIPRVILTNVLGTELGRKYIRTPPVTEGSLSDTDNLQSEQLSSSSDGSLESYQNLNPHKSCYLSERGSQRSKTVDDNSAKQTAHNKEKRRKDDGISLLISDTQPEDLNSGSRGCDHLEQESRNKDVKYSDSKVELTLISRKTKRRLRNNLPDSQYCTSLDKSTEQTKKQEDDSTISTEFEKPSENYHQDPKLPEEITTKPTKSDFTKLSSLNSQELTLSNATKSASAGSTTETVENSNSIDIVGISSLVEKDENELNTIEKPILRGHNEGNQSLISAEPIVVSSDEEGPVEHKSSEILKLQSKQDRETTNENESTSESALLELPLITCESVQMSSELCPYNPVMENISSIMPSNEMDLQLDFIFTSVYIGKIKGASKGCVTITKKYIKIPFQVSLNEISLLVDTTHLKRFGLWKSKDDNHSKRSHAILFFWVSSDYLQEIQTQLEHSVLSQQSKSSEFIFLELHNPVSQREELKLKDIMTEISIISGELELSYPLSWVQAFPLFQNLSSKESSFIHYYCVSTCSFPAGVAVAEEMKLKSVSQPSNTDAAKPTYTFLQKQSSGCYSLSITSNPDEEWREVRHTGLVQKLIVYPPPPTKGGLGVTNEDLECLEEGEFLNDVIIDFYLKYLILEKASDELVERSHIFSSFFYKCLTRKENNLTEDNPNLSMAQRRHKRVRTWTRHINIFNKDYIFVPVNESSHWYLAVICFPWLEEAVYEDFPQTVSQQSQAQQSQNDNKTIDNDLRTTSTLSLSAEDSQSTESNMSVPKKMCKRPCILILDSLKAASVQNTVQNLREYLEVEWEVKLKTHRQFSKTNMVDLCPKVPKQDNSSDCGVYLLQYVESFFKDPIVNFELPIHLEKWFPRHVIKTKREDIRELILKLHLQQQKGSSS
The series is classed as functional.

Series [9] has as its target T4, Sentrin-specific protease 6 (Homo sapiens, UniProt Q9GZR1).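 Also: Luminescence-based dose-response confirmatory assay of SENP6 inhibition, following up an ultra-high-throughput screen.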
T4 sequence (Q9GZR1 whole entry): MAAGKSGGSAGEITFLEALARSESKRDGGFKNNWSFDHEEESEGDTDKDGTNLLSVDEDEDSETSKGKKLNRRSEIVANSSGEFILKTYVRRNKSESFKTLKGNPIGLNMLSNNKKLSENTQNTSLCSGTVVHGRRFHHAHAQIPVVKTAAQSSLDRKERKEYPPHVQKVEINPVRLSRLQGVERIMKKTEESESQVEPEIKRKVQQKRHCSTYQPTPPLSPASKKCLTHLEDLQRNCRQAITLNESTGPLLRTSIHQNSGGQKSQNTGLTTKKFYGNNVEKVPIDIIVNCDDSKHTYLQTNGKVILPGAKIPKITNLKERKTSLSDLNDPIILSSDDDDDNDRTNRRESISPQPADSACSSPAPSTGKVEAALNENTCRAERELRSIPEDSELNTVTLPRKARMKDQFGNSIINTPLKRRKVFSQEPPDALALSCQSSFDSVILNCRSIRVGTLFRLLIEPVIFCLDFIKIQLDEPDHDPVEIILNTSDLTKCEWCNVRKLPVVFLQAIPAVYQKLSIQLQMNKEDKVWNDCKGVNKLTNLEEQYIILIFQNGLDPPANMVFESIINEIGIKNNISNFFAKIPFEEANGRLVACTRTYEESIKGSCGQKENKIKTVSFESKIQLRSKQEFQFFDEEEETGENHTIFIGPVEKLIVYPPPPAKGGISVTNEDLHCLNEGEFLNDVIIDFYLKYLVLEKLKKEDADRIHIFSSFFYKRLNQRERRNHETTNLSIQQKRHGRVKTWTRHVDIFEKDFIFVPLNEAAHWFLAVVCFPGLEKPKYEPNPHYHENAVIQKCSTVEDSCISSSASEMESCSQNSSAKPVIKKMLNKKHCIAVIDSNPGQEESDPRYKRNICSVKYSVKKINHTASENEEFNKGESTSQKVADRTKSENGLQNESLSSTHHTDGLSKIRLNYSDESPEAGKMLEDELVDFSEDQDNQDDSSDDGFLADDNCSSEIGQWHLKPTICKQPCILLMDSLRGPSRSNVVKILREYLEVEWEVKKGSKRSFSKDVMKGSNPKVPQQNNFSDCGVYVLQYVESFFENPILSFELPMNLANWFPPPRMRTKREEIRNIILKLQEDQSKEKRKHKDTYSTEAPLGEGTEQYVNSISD
The series is classed as functional.

The nature of series [10]: HEK293 cell cytotoxicity, dose response, cytotoxicity control, plate reader, cherry-picked samples (AID 743446). The series is classed as functional, cell-based.
Series [11] can be described thus: MC4R antagonists, dose response, counter-screen for LGR2 antagonist project, cell-based, plate reader, cherry pick (AID 743444).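 Also: transfected HEK 293 cells stimulated with alpha-MSH peptide; potency of inhibitors of the alpha-MSH evoked signal.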 The series is classed as functional. (In general: Counterscreens check selectivity or assay interference.)
Series [12] deals with T5, Sentrin-specific protease 8 (Homo sapiens, UniProt Q96LD8).
T5 sequence (Q96LD8 whole entry): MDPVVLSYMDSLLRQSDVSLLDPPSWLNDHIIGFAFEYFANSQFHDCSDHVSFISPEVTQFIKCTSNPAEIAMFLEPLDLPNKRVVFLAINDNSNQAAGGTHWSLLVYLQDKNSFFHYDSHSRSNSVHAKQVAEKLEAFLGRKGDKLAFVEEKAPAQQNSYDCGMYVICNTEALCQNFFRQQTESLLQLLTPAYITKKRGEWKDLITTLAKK
The series is classed as functional.

The next series has as its target T6, Caspase-3 (Homo sapiens, UniProt P42574).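 Also: Dose-response selectivity test against caspase-3 for candidate inhibitors of sentrin-specific proteases (SENPs).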
T6 sequence (P42574 whole entry): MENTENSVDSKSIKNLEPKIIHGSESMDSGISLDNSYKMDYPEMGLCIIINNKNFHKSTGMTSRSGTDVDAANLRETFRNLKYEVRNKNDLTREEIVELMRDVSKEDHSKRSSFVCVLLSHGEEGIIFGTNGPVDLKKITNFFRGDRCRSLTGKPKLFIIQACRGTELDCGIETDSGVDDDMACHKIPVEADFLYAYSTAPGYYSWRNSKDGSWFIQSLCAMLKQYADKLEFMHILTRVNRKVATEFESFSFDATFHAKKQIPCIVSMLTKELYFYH
It counts as functional.

Series [13] can be described thus: HepG2 cell cytotoxicity, dose response, cytotoxicity control, plate reader, cherry-pick, antagonist series (AID 743416). It counts as functional, cell-based.
A short description of series [14]: LGR2 antagonists, dose response, cell-based, HEK293, CRE-luciferase reporter, cherry pick, set 2 (AID 743343).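 Also: transfected cells were stimulated with diluted bursicon conditioned medium after compound addition.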 It counts as functional.

SMILES strings stand for the structures. Calls of active or inactive are those of the source. A value given as a limit tells only on which side of the number the result lay.

Consider `Cc1cc(C)n(CC(O)CN2c3ccccc3Sc3ccccc32)n1` (centres undefined), for which, in series [1], the 50% cytotoxic concentration (CC50) was 100 µM (active). The figures for the half-inhibitory concentration (IC50) in series [2] and in [3] were 82.6 µM (active) and > 100 µM (active), respectively.
Turning to `CCOc1cccc(CNc2ccc(O)cc2)c1OCc1ccccc1Cl`, the cytotoxic concentration (CC50) with Vero is > 40 µM (active); in [4] it was 23 µM (active).
As to `Cc1ccc(NC(=O)CSc2nnc(C3CCCCC3)n2N)cc1F`, the IC50 in [3] is > 100 µM (active).
Regarding `CCN(CC)C(=O)CCNS(=O)(=O)c1ccc(C)cc1`, the AC50 was 25.1 µM (inconclusive) at Cytochrome P450 3A4, “inconclusive” on Cytochrome P450 2C9 and 28.2 µM (inconclusive) at Cytochrome P450 1A2. Moreover, the IC50 in series [3] was > 100 µM (active).
`O=C(NNC(=O)c1ccccc1O)c1ccc(-c2ccc([N+](=O)[O-])cc2)o1`: the IC50 at Albumin was > 94.1 µM (inactive). Also, the results for the EC50 in series [5] and in series [6] were > 150 µM (inactive) and > 38 µM (not active), respectively. Besides, in [4], the CC50 is 15.3 µM (active).
With `O=C(OC(C(=O)NCc1cccs1)c1ccccc1Cl)c1ccco1` (centres undefined), in series [4], the CC50 was > 40 µM (active).
Take `COC(=O)Cc1cc(O)n2nc(C)cc2n1`: the IC50 in series [3] is > 100 µM (active).
Still for that read-out and setting: the result for `Cc1ccc(-c2csc(NC(=O)c3ccc(-c4ccccc4)cc3)n2)o1` reads > 100 µM (active).
On to `COc1ccccc1C(=O)C1CCCN(Cc2ccc3c(c2)OCCO3)C1` (centres undefined), for which the CC50 in series [4] is > 40 µM (active).
Consider `O=C(O)CN1C(=O)CSc2ccccc21`, for which the 50% inhibitory concentration (IC50) in series [3] was > 100 µM (active).
`C/C(O)=C1/C(=O)N(C)C(=S)N(c2ccccc2)C1=O`: the half-maximal inhibitory concentration (IC50) in series [3] was > 100 µM (active).
With `Cn1c(-c2ccccc2)cc2onc(-c3ccccc3)c2c1=O`, the AC50 was > 52 µM (inactive) in series [7]; 51.9 µM (active) in series [10]; 3.66 µM (active) in [11]; 34.4 µM (active) in series [13]; 3.08 µM (active) in series [14]. The IC50 in series [8] is 1.14 µM (active); in series [9], 1.51 µM (active); in [12] it was 3.11 µM (active); on Caspase-3, 2.4 µM (active).

The term CC50 denotes the concentration that lowers cell viability or growth by half. As usually defined, the IC50 is the midpoint of a concentration-inhibition curve. By AC50 is commonly meant the concentration giving half of the maximal activity seen. Usually EC50 stands for the concentration at which the effect is half-maximal.
